Experimental data taken from PMC4418665, “Cyclization of the Urokinase Receptor-Derived Ser-Arg-Ser-Arg-Tyr Peptide Generates a Potent Inhibitor of Trans-Endothelial Migration of Monocytes” (PLoS ONE, 2015).
Peptide text beside a SMILES is read from it.

Target: T1, FPR1 (Homo sapiens, UniProt P21462)
T1 sequence (P21462 1-350): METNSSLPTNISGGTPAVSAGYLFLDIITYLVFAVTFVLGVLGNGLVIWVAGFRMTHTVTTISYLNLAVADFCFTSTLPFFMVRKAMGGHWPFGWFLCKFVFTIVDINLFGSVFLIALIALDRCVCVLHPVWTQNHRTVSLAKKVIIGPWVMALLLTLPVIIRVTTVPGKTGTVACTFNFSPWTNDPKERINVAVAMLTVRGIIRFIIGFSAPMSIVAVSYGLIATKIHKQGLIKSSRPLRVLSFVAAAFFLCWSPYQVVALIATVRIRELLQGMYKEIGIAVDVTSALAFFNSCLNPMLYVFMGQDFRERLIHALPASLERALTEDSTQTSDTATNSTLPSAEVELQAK
Test: Agonist-induced FPR1 internalization at 37°C, fluorescence microscopy, THP-1 cells
Format: cell-based
Parameters: host or cells: THP-1 human monocytic leukemia cells
Conditions: excess (100 nM) unlabelled peptide 30 min at 37°C, then 10 nM FITC-fMLF 30 min at 37°C
Method: Once documented that both SRSRY and [SRSRY] peptides compete with fMLF for binding to FPR1, we investigated the effect of [SRSRY] on the motility of monocytes. Preliminarily, we assessed whether [SRSRY] is a ligand of FPR1 on monocyte cell surface. […] (Fig 3A). When binding experiments were performed at 37°C, FPR1 appeared mainly localized within the cytoplasm, adjacent but outside the nucleus of THP-1 cells.
Fig 3 The peptide [SRSRY] binds to FPR1 on THP-1 cell surface. A. THP-1 cells (1.5 x10^6 cells/sample) were pre-incubated with diluents (None), 100 nM fMLF, 100 nM SRSRY or 100 nM [SRSRY] peptides for 60 minutes at 4°C, then exposed to 10 nM N-formyl-Nle-Leu-Phe-Nle-Tyr-Lys-fluorescein (FITC-fMLF) for additional 60 minutes at 4°C. Fluorimetric measurement of cell-associated fluorescence was assed using 485 nm excitation and 535 nm emission filters. Data are expressed as a percentage of the fluorescence associated to THP-1 cells exposed to FITC-fMLF alone (None = 100%) and represent a mean ± SD from triplicates. *Statistical significance (t-test) against None with p<0.001. B. THP-1 cells incubated with diluents (None), 100 nM fMLF, 100 nM SRSRY or 100 nM [SRSRY] peptides for 30 minutes at 37°C and exposed to 10 nM FITC-fMLF for additional 30 minutes at 37°C. Scale bar: 5 μm. Original magnifications: 630x. […]

N=C(N)NCCC[C@@H]1NC(=O)[C@H](CO)NC(=O)[C@H](Cc2ccc(O)cc2)NC(=O)[C@H](CCCNC(=N)N)NC(=O)[C@H](CO)NC1=O [[SRSRY], [Ser-Arg-Ser-Arg-Tyr]] (cyclo(RSRYS))
internalization of fluorescent agonist in THP-1 cells: dramatically reduced
